Test results as given in paper PMC4904262 (ACS Medicinal Chemistry Letters, 2016).

Columns and labels:
in vitro [1] = details: rat, microsomes
Caco-2 = details: human
in vitro [2] = details: mouse, microsomes
in vitro [3] = details: human, microsomes
WNT signaling = assay: cells; details: 7dF3, read-out: 7dF3 IC50
aldehyde oxidase [4] = target: T1, aldehyde oxidase (Homo sapiens, UniProt Q06278); details: for % of parent compd remaining after 45 min: human, cytosol, 0.75 h, 1 µM
aldehyde oxidase [5] = target: T1, aldehyde oxidase; assay: in vitro; details: cytosol

T1 sequence (Q06278 whole entry): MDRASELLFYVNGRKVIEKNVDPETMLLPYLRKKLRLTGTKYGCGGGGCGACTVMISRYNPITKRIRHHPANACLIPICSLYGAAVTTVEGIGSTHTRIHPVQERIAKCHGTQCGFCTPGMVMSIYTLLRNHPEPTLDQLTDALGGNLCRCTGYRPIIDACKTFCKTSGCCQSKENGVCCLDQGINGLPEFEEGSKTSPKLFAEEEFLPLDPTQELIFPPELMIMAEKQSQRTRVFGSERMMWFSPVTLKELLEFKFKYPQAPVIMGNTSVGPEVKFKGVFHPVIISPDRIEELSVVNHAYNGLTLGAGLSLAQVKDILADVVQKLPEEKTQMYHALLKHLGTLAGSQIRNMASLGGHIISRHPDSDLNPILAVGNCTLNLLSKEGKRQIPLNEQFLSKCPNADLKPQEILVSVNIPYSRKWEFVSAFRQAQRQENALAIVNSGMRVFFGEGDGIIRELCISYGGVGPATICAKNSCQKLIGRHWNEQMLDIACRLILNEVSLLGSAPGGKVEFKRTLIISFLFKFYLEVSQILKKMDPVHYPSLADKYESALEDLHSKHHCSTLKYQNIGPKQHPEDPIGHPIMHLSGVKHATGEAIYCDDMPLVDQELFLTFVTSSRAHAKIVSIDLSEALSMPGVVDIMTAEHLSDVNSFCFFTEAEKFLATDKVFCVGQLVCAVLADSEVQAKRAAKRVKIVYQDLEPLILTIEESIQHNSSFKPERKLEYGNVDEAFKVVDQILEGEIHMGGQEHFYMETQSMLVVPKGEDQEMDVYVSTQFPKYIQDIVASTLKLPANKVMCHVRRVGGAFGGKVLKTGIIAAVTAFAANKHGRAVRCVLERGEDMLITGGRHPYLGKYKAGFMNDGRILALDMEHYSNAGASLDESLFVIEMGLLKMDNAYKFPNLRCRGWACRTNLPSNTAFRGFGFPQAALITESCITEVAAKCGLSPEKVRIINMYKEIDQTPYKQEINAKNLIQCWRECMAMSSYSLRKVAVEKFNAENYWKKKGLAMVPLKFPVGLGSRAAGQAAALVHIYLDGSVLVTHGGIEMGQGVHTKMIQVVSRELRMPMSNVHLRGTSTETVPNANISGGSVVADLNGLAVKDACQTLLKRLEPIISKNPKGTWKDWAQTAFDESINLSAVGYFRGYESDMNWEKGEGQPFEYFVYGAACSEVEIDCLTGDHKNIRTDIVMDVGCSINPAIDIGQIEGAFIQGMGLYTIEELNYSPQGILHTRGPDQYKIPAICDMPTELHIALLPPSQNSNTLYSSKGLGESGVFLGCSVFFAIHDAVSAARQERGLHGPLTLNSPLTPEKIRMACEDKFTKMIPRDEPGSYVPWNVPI

## Cn1cc(-c2ccc(-c3cnc(N)c4ccc(C(=O)N5CCC5)nc34)cc2)cn1 [Compound 52]
In vitro [1]
  microsomal CLint at 1 µM: 38 µL/min/mg
Caco-2
  Caco-2 ER: 5.3
  Caco-2 PappA-B: 42.6 × 10^–6 cm/s
In vitro [2]
  microsomal CLint at 1 µM: 61 µL/min/mg
In vitro [3]
  microsomal CLint at 1 µM: 24 µL/min/mg

## CNC(=O)c1ccc2c(OC)ncc(-c3ccc4c(c3)CS(=O)(=O)N4)c2n1 [Compound 45]
WNT signaling
  IC50: > 30 µM

## Cn1cc(-c2ccc(-c3cnc(N)c4ccc(N5CCOC5=O)cc34)cc2)cn1 [Compound 65]
In vitro [1]
  microsomal CLint at 1 µM: 19 µL/min/mg
Aldehyde oxidase [4]
  AO substrate (Enzyme assay): No
Caco-2
  Caco-2 ER: 16.2
  Caco-2 PappA-B: 20.6 × 10^–6 cm/s
In vitro [2]
  microsomal CLint at 1 µM: 66 µL/min/mg
In vitro [3]
  microsomal CLint at 1 µM: 14 µL/min/mg

## COC1(C)CN(C(=O)c2ccc3c(N)ncc(-c4ccc(-c5cnn(C)c5)cc4)c3n2)C1 [Compound 53]
In vitro [1]
  microsomal CLint: 25 µL/min/mg
Caco-2
  Caco-2 ER: 5.8
  Caco-2 PappA-B: 40.1 × 10^–6 cm/s
In vitro [2]
  microsomal CLint at 1 µM: 48 µL/min/mg
In vitro [3]
  microsomal CLint: 25 µL/min/mg

## Cn1cc(-c2ccc(-c3cncc4ccc(C(=O)N5CC(F)(F)C5)nc34)cc2)cn1 [Compound 14]
In vitro [1]
  microsomal CLint at 1 µM: 317 µL/min/mg
In vitro [2]
  microsomal CLint at 1 µM: 160 µL/min/mg
In vitro [3]
  microsomal CLint at 1 µM: 111 µL/min/mg

## Cn1cc(-c2ccc(-c3cncc4ccc(-c5nccn5C)cc34)cc2)cn1 [Compound 33]
In vitro [1]
  microsomal CLint at 1 µM: 307 µL/min/mg
In vitro [2]
  microsomal CLint at 1 µM: 570 µL/min/mg
In vitro [3]
  microsomal CLint at 1 µM: 398 µL/min/mg

## Cn1cc(-c2ccc(-c3cncc4ccc(-c5ncco5)nc34)cc2)cn1 [Compound 25]
Aldehyde oxidase [5]
  CLint scaled at 1 µM: 367 mL/min/kg
In vitro [1]
  microsomal CLint at 1 µM: 796 µL/min/mg
Aldehyde oxidase [4]
  % of parent compd remaining after 45 min: 0%
In vitro [2]
  microsomal CLint at 1 µM: 200 µL/min/mg
In vitro [3]
  microsomal CLint at 1 µM: 48 µL/min/mg

## Cn1cc(-c2ccc(-c3cncc4ccc(C(=O)NC5CC5)cc34)cc2)cn1 [Compound 28]
In vitro [1]
  microsomal CLint at 1 µM: 98 µL/min/mg
Aldehyde oxidase [4]
  AO substrate (Enzyme assay): Yes
In vitro [2]
  microsomal CLint at 1 µM: 141 µL/min/mg
In vitro [3]
  microsomal CLint at 1 µM: 31 µL/min/mg

## Cn1cc(-c2ccc(-c3cnc(N)c4ccc(C(=O)N5CCOCC5)nc34)cc2)cn1 [Compound 50]
Caco-2
  Caco-2 ER: 9
  Caco-2 PappA-B: 34.0 × 10^–6 cm/s

## CNC(=O)c1ccc2cncc(-c3ccc(-c4cnn(C)c4)cc3)c2n1 [Compound 4]
In vitro [1]
  microsomal CLint: > 1000 µL/min/mg
In vitro [2]
  microsomal CLint at 1 µM: 172 µL/min/mg
In vitro [3]
  microsomal CLint at 1 µM: 40 µL/min/mg

## Cn1cc(-c2ccc(-c3cncc4ccc(-c5ccnn5C)nc34)cc2)cn1 [Compound 23]
In vitro [1]
  microsomal CLint at 1 µM: 761 µL/min/mg
In vitro [2]
  microsomal CLint at 1 µM: 310 µL/min/mg
In vitro [3]
  microsomal CLint at 1 µM: 144 µL/min/mg

## Cn1cc(-c2ccc(-c3cncc4ccc(-c5ccn(C)n5)nc34)cc2)cn1 [Compound 24]
In vitro [1]
  microsomal CLint at 1 µM: 212 µL/min/mg
In vitro [2]
  microsomal CLint at 1 µM: 299 µL/min/mg
In vitro [3]
  microsomal CLint at 1 µM: 45 µL/min/mg

## COC1CN(C(=O)c2ccc3cncc(-c4ccc(-c5cnn(CC(C)(C)O)c5)cc4)c3n2)C1 [Compound 38]
Aldehyde oxidase [4]
  % of parent compd remaining after 45 min: 0%
WNT signaling
  IC50: 0.0028 ± 0.0007 µM

## COC1CN(C(=O)c2ccc3cncc(-c4ccc5c(cnn5CC(C)(C)O)c4)c3n2)C1 [Compound 39]
Aldehyde oxidase [4]
  % of parent compd remaining after 45 min: 0%
WNT signaling
  IC50: 0.225 ± 0.076 µM

## COC1CN(C(=O)c2ccc3cncc(-c4ccc(-c5cnn(CC(C)(C)O)c5)cc4)c3c2)C1 [Compound 41]
Aldehyde oxidase [4]
  % of parent compd remaining after 45 min: 0%
WNT signaling
  IC50: 0.0132 ± 0.0152 µM

## Cn1cc(-c2ccc(-c3cncc4ccc(-c5ncco5)cc34)cc2)cn1 [Compound 32]
In vitro [1]
  microsomal CLint at 1 µM: 96 µL/min/mg
Aldehyde oxidase [4]
  % of parent compd remaining after 45 min: 3%
In vitro [2]
  microsomal CLint at 1 µM: 129 µL/min/mg
In vitro [3]
  microsomal CLint at 1 µM: 81 µL/min/mg

## CNC(=O)c1ccc2cncc(-c3ccc4cnn(C)c4c3)c2n1 [Compound 6]
In vitro [1]
  microsomal CLint at 1 µM: 178 µL/min/mg
In vitro [2]
  microsomal CLint at 1 µM: 333 µL/min/mg
In vitro [3]
  microsomal CLint at 1 µM: 32 µL/min/mg

## COC1CN(C(=O)c2ccc3cncc(-c4ccc5nn(CC(C)(C)O)cc5c4)c3n2)C1 [Compound 40]
Aldehyde oxidase [4]
  % of parent compd remaining after 45 min: 0%
WNT signaling
  IC50: 0.0179 ± 0.0055 µM

## Cn1cc(-c2ccc(-c3cncc4ccc(C(=O)N5CCCC5)nc34)cc2)cn1 [Compound 15]
In vitro [1]
  microsomal CLint at 1 µM: 55 µL/min/mg
In vitro [2]
  microsomal CLint at 1 µM: 321 µL/min/mg
In vitro [3]
  microsomal CLint at 1 µM: 38 µL/min/mg

## Cn1cc(-c2ccc(-c3cnc(N)c4ccc(C(=O)N5CC(C)(F)C5)nc34)cc2)cn1 [Compound 55]
In vitro [1]
  microsomal CLint at 1 µM: 24 µL/min/mg
Caco-2
  Caco-2 ER: 3.4
  Caco-2 PappA-B: 27.6 × 10^–6 cm/s
In vitro [2]
  microsomal CLint at 1 µM: 125 µL/min/mg
In vitro [3]
  microsomal CLint at 1 µM: 20 µL/min/mg

## CC(=O)Nc1ccc2cncc(-c3ccc(-c4cnn(C)c4)cc3)c2c1 [Compound 31]
In vitro [1]
  microsomal CLint at 1 µM: 90 µL/min/mg
Aldehyde oxidase [4]
  AO substrate (Enzyme assay): Yes
In vitro [2]
  microsomal CLint at 1 µM: 200 µL/min/mg
In vitro [3]
  microsomal CLint at 1 µM: 26 µL/min/mg

## Cn1cc(-c2ccc(-c3cncc4ccc(N5CCNC5=O)nc34)cc2)cn1 [Compound 20]
In vitro [1]
  microsomal CLint at 1 µM: 323 µL/min/mg
In vitro [2]
  microsomal CLint at 1 µM: 246 µL/min/mg
In vitro [3]
  microsomal CLint at 1 µM: 64 µL/min/mg
